# Reference: BindingDB's records for patent US9776990 (Abbvie, 2017)
# Biological target: Bromodomain-containing protein 4 (Homo sapiens, UniProt O60885)
row,SMILES,Ki [µM]
1,"Cc1[nH]c(-c2cccc3ccccc23)c2c1C(=O)CCC2 [US9776990, Example 19]",19.7
2,"Cc1[nH]c(-c2ccccc2CN2C(=O)c3ccccc3C2=O)c2c1C(=O)CCC2 [US9776990, Example 26]",10.4
3,"Cc1[nH]c(-c2ccccc2Oc2ccccc2)c2c1C(=O)CC(CC(C)C)C2 (stereo not drawn) [US9776990, Example 68]",22.2
